# Source: PubChem BioAssay AID588787 (The Scripps Research Institute Molecular Screening Center, 2011)
# Active and inactive are the calls of the source.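 Rule for the calls: active = pPAFAH enzyme ratio at or below 0.5 while fewer than two other serine hydrolases drop that low; inactive = the rest.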
# Tests used:
# Assay in all cases: serine hydrolase selectivity in soluble brain proteome, late-stage follow-up, selectivity assay for pPAFAH inhibitor project, biochemical, LC-MS/MS, mouse brain soluble proteome (AID 588787)
# [1] = molecular target: Platelet-activating factor acetylhydrolase (Mus musculus) (UniProt Q60963); conditions: ABPP-MudPIT FP-biotin spectral counts, Pla2g7 (pPAFAH), at 1 µM, stronger effect = lower value
# Sequence of Platelet-activating factor acetylhydrolase (Mus musculus) (Q60963 whole entry, looked up): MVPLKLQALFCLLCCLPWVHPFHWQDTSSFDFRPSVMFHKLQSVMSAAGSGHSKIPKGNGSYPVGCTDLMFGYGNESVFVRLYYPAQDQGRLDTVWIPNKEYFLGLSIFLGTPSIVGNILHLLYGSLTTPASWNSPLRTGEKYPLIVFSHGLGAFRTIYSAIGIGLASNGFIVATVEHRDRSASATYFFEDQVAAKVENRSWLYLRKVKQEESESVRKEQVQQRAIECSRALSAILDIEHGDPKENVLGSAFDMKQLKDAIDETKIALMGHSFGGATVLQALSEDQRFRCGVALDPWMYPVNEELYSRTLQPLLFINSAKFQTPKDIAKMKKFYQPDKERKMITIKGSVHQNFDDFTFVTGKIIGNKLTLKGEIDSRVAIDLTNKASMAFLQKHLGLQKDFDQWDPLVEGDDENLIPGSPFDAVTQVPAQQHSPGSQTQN
# [2] = system: Lyplal1; conditions: ABPP-MudPIT FP-biotin spectral counts, at 1 µM, stronger effect = lower value
# [3] = system: Acot7; conditions: ABPP-MudPIT FP-biotin spectral counts, at 1 µM, stronger effect = lower value
# [4] = system: Dpp8; conditions: ABPP-MudPIT FP-biotin spectral counts, at 1 µM, stronger effect = lower value
# [5] = system: Apeh; conditions: ABPP-MudPIT FP-biotin spectral counts, at 1 µM, stronger effect = lower value
# [6] = system: Rbbp9; conditions: ABPP-MudPIT FP-biotin spectral counts, at 1 µM, stronger effect = lower value
# [7] = system: Es1; conditions: ABPP-MudPIT FP-biotin spectral counts, at 1 µM, stronger effect = lower value
# [8] = system: Lypla2; conditions: ABPP-MudPIT FP-biotin spectral counts, at 1 µM, stronger effect = lower value
# [9] = system: Pafah1b3; conditions: ABPP-MudPIT FP-biotin spectral counts, at 1 µM, stronger effect = lower value
# [10] = system: Pafah1b2; conditions: ABPP-MudPIT FP-biotin spectral counts, at 1 µM, stronger effect = lower value
# [11] = molecular target: Acyl-protein thioesterase 1 (Mus musculus) (UniProt P97823); conditions: ABPP-MudPIT FP-biotin spectral counts, Lypla1, at 1 µM, stronger effect = lower value
# Sequence of Acyl-protein thioesterase 1 (Mus musculus) (P97823 whole entry, looked up): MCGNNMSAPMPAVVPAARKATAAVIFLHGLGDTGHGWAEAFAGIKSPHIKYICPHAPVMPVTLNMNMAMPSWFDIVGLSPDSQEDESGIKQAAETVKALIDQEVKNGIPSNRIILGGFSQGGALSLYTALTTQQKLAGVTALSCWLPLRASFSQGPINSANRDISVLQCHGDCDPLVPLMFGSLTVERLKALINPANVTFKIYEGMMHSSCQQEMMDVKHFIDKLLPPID
# [12] = system: Magl; conditions: ABPP-MudPIT FP-biotin spectral counts, at 1 µM, stronger effect = lower value
# [13] = molecular target: Prolyl endopeptidase (Mus musculus) (UniProt Q9QUR6); conditions: ABPP-MudPIT FP-biotin spectral counts, Prep, at 1 µM, stronger effect = lower value
# Sequence of Prolyl endopeptidase (Mus musculus) (Q9QUR6 whole entry, looked up): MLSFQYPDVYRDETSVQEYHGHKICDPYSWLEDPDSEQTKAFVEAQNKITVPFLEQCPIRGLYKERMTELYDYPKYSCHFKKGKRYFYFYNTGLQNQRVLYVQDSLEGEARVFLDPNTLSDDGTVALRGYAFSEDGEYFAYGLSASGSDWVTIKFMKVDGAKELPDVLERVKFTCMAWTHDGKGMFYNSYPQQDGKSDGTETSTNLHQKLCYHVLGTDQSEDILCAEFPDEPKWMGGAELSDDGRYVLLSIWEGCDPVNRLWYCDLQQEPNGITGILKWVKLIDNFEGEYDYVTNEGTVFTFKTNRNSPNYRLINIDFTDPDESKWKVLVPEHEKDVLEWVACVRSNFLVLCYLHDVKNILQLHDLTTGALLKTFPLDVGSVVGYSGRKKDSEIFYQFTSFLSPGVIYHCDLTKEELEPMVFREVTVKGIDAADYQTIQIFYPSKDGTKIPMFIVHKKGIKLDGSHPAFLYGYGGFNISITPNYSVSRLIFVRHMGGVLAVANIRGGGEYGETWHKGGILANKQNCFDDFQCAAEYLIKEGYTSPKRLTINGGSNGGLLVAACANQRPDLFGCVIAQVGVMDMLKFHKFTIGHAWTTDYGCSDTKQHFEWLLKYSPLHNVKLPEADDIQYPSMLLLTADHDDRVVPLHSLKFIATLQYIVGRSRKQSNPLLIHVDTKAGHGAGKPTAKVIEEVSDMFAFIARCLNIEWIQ
# [14] = system: Pme1; conditions: ABPP-MudPIT FP-biotin spectral counts, at 1 µM, stronger effect = lower value
# [15] = system: Abhd11; conditions: ABPP-MudPIT FP-biotin spectral counts, at 1 µM, stronger effect = lower value
# [16] = system: Prepl; conditions: ABPP-MudPIT FP-biotin spectral counts, at 1 µM, stronger effect = lower value
# [17] = system: Tpp2; conditions: ABPP-MudPIT FP-biotin spectral counts, at 1 µM, stronger effect = lower value
# [18] = system: Fasn; conditions: ABPP-MudPIT FP-biotin spectral counts, at 1 µM, stronger effect = lower value
# [19] = molecular target: Abhd4 (UniProt Q8VD66); conditions: ABPP-MudPIT FP-biotin spectral counts, at 1 µM, stronger effect = lower value
# Sequence of Abhd4 (Q8VD66 whole entry, looked up): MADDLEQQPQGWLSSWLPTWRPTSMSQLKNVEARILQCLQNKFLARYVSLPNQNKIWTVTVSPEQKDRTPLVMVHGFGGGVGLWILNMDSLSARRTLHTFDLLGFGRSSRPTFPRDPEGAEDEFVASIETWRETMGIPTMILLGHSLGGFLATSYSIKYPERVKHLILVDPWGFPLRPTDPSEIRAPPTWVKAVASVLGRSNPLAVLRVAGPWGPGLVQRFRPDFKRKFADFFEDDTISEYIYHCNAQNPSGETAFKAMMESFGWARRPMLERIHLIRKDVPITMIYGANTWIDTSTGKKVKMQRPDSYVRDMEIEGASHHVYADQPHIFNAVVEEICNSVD
# [20] = system: Pla2g15; conditions: ABPP-MudPIT FP-biotin spectral counts, at 1 µM, stronger effect = lower value
# [21] = molecular target: Palmitoyl-protein thioesterase ABHD10, mitochondrial (Mus musculus) (UniProt Q6PE15); conditions: ABPP-MudPIT FP-biotin spectral counts, at 1 µM, stronger effect = lower value
# Sequence of Palmitoyl-protein thioesterase ABHD10, mitochondrial (Mus musculus) (Q6PE15 whole entry, looked up): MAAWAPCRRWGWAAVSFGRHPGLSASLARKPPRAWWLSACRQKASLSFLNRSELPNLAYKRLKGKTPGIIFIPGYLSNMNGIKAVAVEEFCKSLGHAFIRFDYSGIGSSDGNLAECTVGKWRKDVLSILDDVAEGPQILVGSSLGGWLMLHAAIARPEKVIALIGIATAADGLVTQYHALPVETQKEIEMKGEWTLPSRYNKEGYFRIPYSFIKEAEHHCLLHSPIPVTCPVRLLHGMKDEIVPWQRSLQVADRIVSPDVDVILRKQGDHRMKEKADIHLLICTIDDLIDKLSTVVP
# [22] = system: Esd; conditions: ABPP-MudPIT FP-biotin spectral counts, at 1 µM, stronger effect = lower value
# [23] = system: Lipe; conditions: ABPP-MudPIT FP-biotin spectral counts, at 1 µM, stronger effect = lower value
# [24] = system: Dpp9; conditions: ABPP-MudPIT FP-biotin spectral counts, at 1 µM, stronger effect = lower value
# [25] = system: Acot1; conditions: ABPP-MudPIT FP-biotin spectral counts, at 1 µM, stronger effect = lower value
# [26] = system: Acot2; conditions: ABPP-MudPIT FP-biotin spectral counts, at 1 µM, stronger effect = lower value
compound,measurement,setting,value
Cc1cc(N2CCN(C(=O)Oc3ccc(-c4ccccc4)cn3)CC2)c2ccccc2n1,ratio of spectral counts to DMSO,[1],0
same,ratio of spectral counts to DMSO,[2],1.1 (inactive)
same,ratio of spectral counts to DMSO,[3],0.8 (inactive)
same,ratio of spectral counts to DMSO,[4],1.1 (inactive)
same,ratio of spectral counts to DMSO,[5],1.1 (inactive)
same,ratio of spectral counts to DMSO,[6],1.1 (inactive)
same,ratio of spectral counts to DMSO,[7],0
same,ratio of spectral counts to DMSO,[8],1.3 (inactive)
same,ratio of spectral counts to DMSO,[9],1.2 (inactive)
same,ratio of spectral counts to DMSO,[10],1.4 (inactive)
same,ratio of spectral counts to DMSO,[11],1.1 (inactive)
same,ratio of spectral counts to DMSO,[12],0.8 (inactive)
same,ratio of spectral counts to DMSO,[13],1.2 (inactive)
same,ratio of spectral counts to DMSO,[14],1.1 (inactive)
same,ratio of spectral counts to DMSO,[15],1.2 (inactive)
same,ratio of spectral counts to DMSO,[16],1.1 (inactive)
same,ratio of spectral counts to DMSO,[17],0.8 (inactive)
same,ratio of spectral counts to DMSO,[18],1.1 (inactive)
same,ratio of spectral counts to DMSO,[19],0.8 (inactive)
same,ratio of spectral counts to DMSO,[20],1.1 (inactive)
same,ratio of spectral counts to DMSO,[21],1.1 (inactive)
same,ratio of spectral counts to DMSO,[22],1.1 (inactive)
same,ratio of spectral counts to DMSO,[23],0.9 (inactive)
same,ratio of spectral counts to DMSO,[24],1.3 (inactive)
same,ratio of spectral counts to DMSO,[25],1.1 (inactive)
same,ratio of spectral counts to DMSO,[26],1.1 (inactive)
